Target: T1, P2X7 receptor (Homo sapiens, UniProt Q99572)
T1 construct: host or cells: THP-1 cells differentiated with LPS and IFN-γ
T1 sequence (Q99572 1-595): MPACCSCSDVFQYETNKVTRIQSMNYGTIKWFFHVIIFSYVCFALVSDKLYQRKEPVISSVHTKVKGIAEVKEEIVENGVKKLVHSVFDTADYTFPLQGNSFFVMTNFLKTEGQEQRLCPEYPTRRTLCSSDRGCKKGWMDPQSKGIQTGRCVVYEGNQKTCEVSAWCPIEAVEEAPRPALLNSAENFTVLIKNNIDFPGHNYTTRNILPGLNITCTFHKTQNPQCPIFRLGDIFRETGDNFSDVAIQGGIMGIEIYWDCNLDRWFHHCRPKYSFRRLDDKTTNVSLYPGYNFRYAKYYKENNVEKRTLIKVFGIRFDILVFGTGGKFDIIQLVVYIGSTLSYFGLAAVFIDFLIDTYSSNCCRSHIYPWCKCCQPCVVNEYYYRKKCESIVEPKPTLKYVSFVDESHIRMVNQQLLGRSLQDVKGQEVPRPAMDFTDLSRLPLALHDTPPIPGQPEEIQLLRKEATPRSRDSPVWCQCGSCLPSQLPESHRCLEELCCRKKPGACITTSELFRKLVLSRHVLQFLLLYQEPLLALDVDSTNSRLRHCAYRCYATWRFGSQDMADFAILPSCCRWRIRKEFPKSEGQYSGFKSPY
Test: IL-1β release assay (BzATP-stimulated, LPS/IFN-γ differentiated THP-1 cells, ELISA)
Type: cell-based
Settings: for inhibition at 0.1 µM: at 0.1 μM (asterisk symbols); for inhibition at 0.3 µM: at 0.3 μM (plus symbols)
Protocol: THP-1 cells (ATCC Cat # 285-IF-100) are plated in 96 well plates at a concentration of 200,000 cells per well and allowed to differentiate in RPMI-1640 media (ATCC Cat # 30-2001) containing 10% FBS, 100 IU/mL penicillin, 100 ug/mL streptomycin, 100 ng/mL LPS and 100 ng/mL IFN-γ for 16 hours. Following differentiation, the cells are treated for an additional 2 hours in RPMI-1640 media containing 100 IU/mL penicillin, 100 ug/mL streptomycin and fresh LPS at 100 ng/mL. The cells are then pretreated for 30 minutes with the compound of interest at the appropriate concentration in RPMI media containing 100 IU/mL penicillin, 100 ug/mL streptomycin. Following the pretreatment 2′,3′-O-(4-benzoylbenzoyl)-adenosine 5′-triphosphate (Sigma Aldrich Cat# B6396) is added to a final concentration of 250 uM and the cells incubated for an additional 45 minutes. 30 uL of cell supernatant is then collected and […] levels determined via ELISA (R&D systems Cat. # HSLB50) according to manufacturer's recommendations using the Tecan Safire plate reader. Background adjusted IL-1β levels of drug treated and non-treated cells are used to calculate the percent inhibition.

Work on `C[C@@H](c1ccccc1)n1ccc2c(NC(=O)CC34CC5CC(C)(CC(C)(C5)C3)C4)cccc2c1=O` [Compound 818] yielded an inhibition at 0.1 µM of 50 to 75%.
Molecule `O=C(CC12CC3CC(CC(C3)C1)C2)Nc1cccc2c(=O)n(CC3CCNCC3)ccc12` [Compound 749] has an inhibition at 0.3 µM of no less than 75%.
`Cc1cc(CN2CCc3c(NC(=O)CC45CC6CC(CC(C6)C4)C5)cccc3C2=O)no1` [Compound 801] was tested, and the inhibition at 0.1 µM was no less than 75%.
`CC(c1ccccn1)n1ccc2c(NC(=O)CC34CC5CC(CC(C5)C3)C4)cccc2c1=O` (stereo not shown) [Compound 858] was tested, and the inhibition at 0.1 µM was no less than 75%.
`CC12CC3CC(C)(C1)CC(CC(=O)Nc1cccc4c(=O)n(C(CO)CO)ccc14)(C3)C2` [Compound 895] showed an inhibition at 0.3 µM of no less than 75%.
`O=C(CC12CC3CC(CC(C3)C1)C2)Nc1cccc2c1CCN(CC1CCCO1)C2=O` (stereo not shown) [Compound 726] was tested, and the inhibition at 0.3 µM was no less than 75%.
`O=C(CC12CC3CC(CC(C3)C1)C2)Nc1cccc2c(=O)n(Cc3nccs3)ccc12` [Compound 885] was tested, and the inhibition at 0.1 µM was no less than 75%.
For `NC(=O)[C@@H](CC1CCCCC1)n1ccc2c(NC(=O)CC34CC5CC(CC(C5)C3)C4)cccc2c1=O` [Compound 881], the inhibition at 0.1 µM was no less than 75%.
Work on `CCN(CC)CCn1ccc2c(NC(=O)CC34CC5CC(CC(C5)C3)C4)cccc2c1=O` [Compound 870] yielded an inhibition at 0.1 µM of no less than 75%.
For `CC12CC3CC(C)(C1)CC(CC(=O)Nc1cccc4c1CCN(Cc1ccccc1F)C4=O)(C3)C2` [Compound 839], the inhibition at 0.1 µM was 50 to 75%.
`O=C(CC12CC3CC(CC(C3)C1)C2)Nc1cccc2c(=O)n(Cc3cccnc3)ccc12` [Compound 715] gave an inhibition at 0.3 µM of no less than 75%.
Work on `CC12CC3CC(C)(C1)CC(CC(=O)Nc1cccc4c1CCN(CC1CCOCC1)C4=O)(C3)C2` [Compound 813] yielded an inhibition at 0.1 µM of no less than 75%.
`O=C(CC12CC3CC(CC(C3)C1)C2)Nc1cccc2c(=O)n(CC3CCCN3)ccc12` (stereo not shown) [Compound 809] was tested, and the inhibition at 0.1 µM was no less than 75%.
`CN1CCC(Cn2ccc3c(NC(=O)CC45CC6CC(C)(CC(C)(C6)C4)C5)cccc3c2=O)CC1` [Compound 746] showed an inhibition at 0.3 µM of no less than 75%.
`O=C(CC12CC3CC(CC(C3)C1)C2)Nc1cccc2c1CCN(Cc1c(F)cccc1F)C2=O` [Compound 798] gave an inhibition at 0.1 µM of no less than 75%.
Molecule `CN1CCC(CN2CCc3c(NC(=O)CC45CC6CC(CC(C6)C4)C5)cccc3C2=O)CC1` [Compound 794] has an inhibition at 0.1 µM of no less than 75%.
With `CN1CCN(CCN2CCc3c(NC(=O)CC45CC6CC(CC(C6)C4)C5)cccc3C2=O)CC1` [Compound 842] the inhibition at 0.1 µM was no less than 75%.
With `O=C(CC12CC3CC(CC(C3)C1)C2)Nc1cccc2c(=O)n(CCc3c[nH]cn3)ccc12` [Compound 808] the inhibition at 0.1 µM was no less than 75%.
In the case of `O=C(CC12CC3CC(CC(C3)C1)C2)Nc1cccc2c(=O)n(CCO)ccc12` [Compound 845], the inhibition at 0.1 µM is reported as no less than 75%.
`O=C(CC12CC3CC(CC(C3)C1)C2)Nc1cccc2c(=O)n(C(CO)Cc3c[nH]cn3)ccc12` (stereo not shown) [Compound 883] gave an inhibition at 0.1 µM of no less than 75%.
`O=C(CC12CC3CC(CC(C3)C1)C2)Nc1cccc2c(=O)n(Cc3ccccc3F)ccc12` [Compound 706] showed an inhibition at 0.3 µM of no less than 75%.
`O=C(CC12CC3CC(CC(C3)C1)C2)Nc1cccc2c(=O)n(Cc3ccc(F)c(F)c3)ccc12` [Compound 735] gave an inhibition at 0.3 µM of no less than 75%.
Work on `O=C(CC12CC3CC(CC(C3)C1)C2)Nc1cccc2c1CCN(CCc1c[nH]cn1)C2=O` [Compound 802] yielded an inhibition at 0.1 µM of no less than 75%.
For `CC(CO)n1ccc2c(NC(=O)CC34CC5CC(CC(C5)C3)C4)cccc2c1=O` (stereo not shown) [Compound 888], the inhibition at 0.3 µM was no less than 75%.
For `O=C(CC12CC3CC(CC(C3)C1)C2)Nc1cccc2c(=O)n(C[C@@H]3CCCN3)ccc12` [Compound 810], the inhibition at 0.1 µM was no less than 75%.
For `CC12CC3CC(C)(C1)CC(CC(=O)Nc1cccc4c(=O)n(CC5CCNCC5)ccc14)(C3)C2` [Compound 890], the inhibition at 0.3 µM was no less than 75%.
For `O=C(CC12CC3CC(CC(C3)C1)C2)Nc1cccc2c(=O)n(Cc3ccccc3Cl)ccc12` [Compound 793], the inhibition at 0.1 µM was no less than 75%.
`O=C(CC12CC3CC(CC(C3)C1)C2)Nc1cccc2c1CCN(CCCn1ccnc1)C2=O` [Compound 836] was tested, and the inhibition at 0.1 µM was no less than 75%.
`CC12CC3CC(C)(C1)CC(CC(=O)Nc1cccc4c(=O)n(Cc5ccc6c(c5)OCCO6)ccc14)(C3)C2` [Compound 803] was tested, and the inhibition at 0.1 µM was no less than 75%.
Work on `CC12CC3CC(C)(C1)CC(CC(=O)Nc1cccc4c(=O)n(CC5COc6ccccc6O5)ccc14)(C3)C2` (stereo not shown) [Compound 766] yielded an inhibition at 0.1 µM of 50 to 75%.
Work on `C=Cn1ccc2c(N(C)C(=O)CC34CC5CC(CC(C5)C3)C4)cccc2c1=O` [Compound 891] yielded an inhibition at 0.3 µM of 50 to 75%.
Molecule `O=C(CC12CC3CC(CC(C3)C1)C2)Nc1cccc2c1CCN(Cc1ccc3c(c1)OCCO3)C2=O` [Compound 791] has an inhibition at 0.1 µM of no less than 75%.
For `Cc1cc(Cn2ccc3c(NC(=O)CC45CC6CC(CC(C6)C4)C5)cccc3c2=O)no1` [Compound 737], the inhibition at 0.3 µM was no less than 75%.
`Cc1cc(Cn2ccc3c(NC(=O)CC45CC6CC(C)(CC(C)(C6)C4)C5)cccc3c2=O)nn1C` [Compound 745] gave an inhibition at 0.3 µM of no less than 75%.
In the case of `Cc1nn(C)c(C)c1Cn1ccc2c(NC(=O)CC34CC5CC(CC(C5)C3)C4)cccc2c1=O` [Compound 718], the inhibition at 0.3 µM is reported as no less than 75%.
In the case of `O=C(CC12CC3CC(CC(C3)C1)C2)Nc1cccc2c1CCN(Cc1ccc(F)cc1F)C2=O` [Compound 725, 2-Adamantan-1-yl-N-[2-(2,4-difluoro-benzyl)-1-oxo-1,2,3,4-tetrahydro-isoquinolin-5-yl]-acetamide], the inhibition at 0.3 µM is reported as no less than 75%.
Work on `Cc1cnc(CN2CCc3c(NC(=O)CC45CC6CC(CC(C6)C4)C5)cccc3C2=O)cn1` [Compound 732] yielded an inhibition at 0.3 µM of no less than 75%.
`CN1CCC(CN2CCc3c(NC(=O)CC45CC6CC(C)(CC(C)(C6)C4)C5)cccc3C2=O)CC1` [Compound 894] gave an inhibition at 0.3 µM of no less than 75%.
`CC12CC3CC(C)(C1)CC(CC(=O)Nc1cccc4c(=O)n(Cc5ccc6c(c5)OCO6)ccc14)(C3)C2` [Compound 821] was tested, and the inhibition at 0.1 µM was no less than 75%.
`O=C(CC12CC3CC(CC(C3)C1)C2)Nc1cccc2c(=O)n(CCN3CCSCC3)ccc12` [Compound 786] was tested, and the inhibition at 0.1 µM was no less than 75%.
`CN1CCCC1CCN1CCc2c(NC(=O)CC34CC5CC(CC(C5)C3)C4)cccc2C1=O` (stereo not shown) [Compound 879] was tested, and the inhibition at 0.1 µM was no less than 75%.
`C[C@H](c1ccccc1)n1ccc2c(NC(=O)CC34CC5CC(CC(C5)C3)C4)cccc2c1=O` [Compound 721] gave an inhibition at 0.3 µM of no less than 75%.
With `O=C(CC12CC3CC(CC(C3)C1)C2)Nc1cccc2c(=O)n(Cc3cccc4c3OCCO4)ccc12` [Compound 769] the inhibition at 0.1 µM was no less than 75%.

Reference: US20090170838A1, “Bicycloheteroaryl compounds as P2X7 modulators and uses thereof” (Renovis, Inc., priority 2005, published 2009)
